Measurements reported in PMC5681922, “Systemic Responses of Multidrug-Resistant Pseudomonas aeruginosa and Acinetobacter baumannii Following Exposure to the Antimicrobial Peptide Cathelicidin-BF Imply Multiple Intracellular Targets” (Frontiers in Cellular and Infection Microbiology, 2017).
Like-named read-outs stand apart in the source and are kept apart here. No end group written: not given here.

Experiments:
[1] = test system: L929 (murine fibroblast cells); details: 400 mg/L; XTT, 24 h, serum-free DMEM
Method: (§1) Cell viability was measured using cell proliferation kit II (XTT) (Roche). Cells, including A549 (adenocarcinomic human alveolar basal epithelial cells), 293FT (human embryonic kidney cells) and L929 (murine fibroblast cells), were cultured in Dulbecco's […] (DMEM) supplemented with 10% fetal bovine serum, 100 U penicillin/mL, and 100 μg streptomycin/mL in a humidified 5% CO2 atmosphere at 37°C. After digestion with trypsin, the cells were diluted in serum-free DMEM without phenol red to a final concentration of 2 × 10^5 cell/mL, seeded in 96 well plates (100 μl/well) and cultured overnight until adhesion. Cathelicidin-BF dissolved in serum-free DMEM without phenol red was added to wells, and the plates were incubated for 24 h as previously described. Subsequent procedures were performed according to the kit. Briefly, XTT labeling reagent (sodium 3′-[1-(phenylaminocarbonyl)-3,4-tetrazolium]-bis-4-methoxy-6-nitro) benzene sulfonic acid hydrate) in Roswell Park Memorial Institute (RPMI) 1640 medium without phenol red was mixed with electron-coupling reagent PMS (N-methyl dibenzopyrazine methyl sulfate) at a volume ratio of 50:1 to make the working solution. Fifty microliters of the XTT labeling mixture was added to each well and incubated at the same conditions for 6 h. Absorbance [A492 nm-A690 nm] stands for the quantification of viable cells.
(§2) Figure 2 Cytotoxicity of cathelicidin-BF. Hemolysis and cell viability assays were conducted to test the cytotoxicity of cathelicidin-BF to mammalian cells.

[2] = test system: A549 (adenocarcinomic human alveolar basal epithelial cells); details: 400 mg/L; XTT, 24 h, serum-free DMEM
Method: as §1, §2

[3] = test system: P. aeruginosa 1409

## KFFRKLKKSVKKRAKEFFKKPRVIGVSIPF [cathelicidin-BF]
[1]
  effect on L929 cells: intact
[2]
  effect on A549 cells: intact
[3]
  Pa-Ca/Pa-C: 0.8832
  Pa-Ca/Pa-C: 30S ribosomal protein S9, rpsI (Q9HVY3): 0.9749
  expression of protein Q9HVA1 (acetolactate synthase isozyme III small subunit): overexpressed
  expression of protein Q9I3S7 (likely decarboxylase): downregulated
  expression of protein Q9I523 (nucleoside-triphosphate diphosphatase): downregulated
[3]; iTRAQ abundance ratio Pa-Cathelicidin/Pa-Control of protein G3XCU7 (GN=PA2949)
  Pa-Ca/Pa-C: 0.9896
[3]; iTRAQ abundance ratio Pa-Cathelicidin/Pa-Control of protein G3XCU9 (GN=PA2020)
  Pa-Ca/Pa-C: 0.9868
[3]; iTRAQ abundance ratio Pa-Cathelicidin/Pa-Control of protein G3XCW2 (GN=PA2018)
  Pa-Ca/Pa-C: 1.1346
[3]; iTRAQ abundance ratio Pa-Cathelicidin/Pa-Control of protein G3XCX7 (GN=pilP)
  Pa-Ca/Pa-C: 0.9395
[3]; iTRAQ abundance ratio Pa-Cathelicidin/Pa-Control of protein G3XCZ4 (GN=PA0891)
  Pa-Ca/Pa-C: 1.209
[3]; iTRAQ abundance ratio Pa-Cathelicidin/Pa-Control of protein G3XD66 (GN=narX)
  Pa-Ca/Pa-C: 0.9046
[3]; iTRAQ abundance ratio Pa-Cathelicidin/Pa-Control of protein G3XD98 (GN=gacS)
  Pa-Ca/Pa-C: 1.089
[3]; iTRAQ abundance ratio Pa-Cathelicidin/Pa-Control of protein G3XDA4 (GN=PA0653)
  Pa-Ca/Pa-C: 1.044
[3]; iTRAQ abundance ratio Pa-Cathelicidin/Pa-Control of protein O50273 (GN=cysD)
  Pa-Ca/Pa-C: 0.9324
[3]; iTRAQ abundance ratio Pa-Cathelicidin/Pa-Control of protein O68561 (GN=PA4766)
  Pa-Ca/Pa-C: 1.042
[3]; iTRAQ abundance ratio Pa-Cathelicidin/Pa-Control of protein P23747 (GN=algB)
  Pa-Ca/Pa-C: 1.041
[3]; iTRAQ abundance ratio Pa-Cathelicidin/Pa-Control of protein Q9HT06 (GN=yidC)
  Pa-Ca/Pa-C: 1.13
[3]; iTRAQ abundance ratio Pa-Cathelicidin/Pa-Control of protein Q9HT09 (GN=mnmG)
  Pa-Ca/Pa-C: 1.075
[3]; iTRAQ abundance ratio Pa-Cathelicidin/Pa-Control of protein Q9HTC2 (GN=PA5445)
  Pa-Ca/Pa-C: 1.07
[3]; iTRAQ abundance ratio Pa-Cathelicidin/Pa-Control of protein Q9HTG5 (GN=dgcB)
  Pa-Ca/Pa-C: 1.053
[3]; iTRAQ abundance ratio Pa-Cathelicidin/Pa-Control of protein Q9HTH5 (GN=cdhR)
  Pa-Ca/Pa-C: 1.224
[3]; iTRAQ abundance ratio Pa-Cathelicidin/Pa-Control of protein Q9HTJ5 (GN=pstA)
  Pa-Ca/Pa-C: 0.8996
[3]; iTRAQ abundance ratio Pa-Cathelicidin/Pa-Control of protein Q9HTL3 (GN=recG)
  Pa-Ca/Pa-C: 1.182
[3]; iTRAQ abundance ratio Pa-Cathelicidin/Pa-Control of protein Q9HTM0 (GN=spoT)
  Pa-Ca/Pa-C: 1.095
[3]; iTRAQ abundance ratio Pa-Cathelicidin/Pa-Control of protein Q9HTN3 (GN=dut)
  Pa-Ca/Pa-C: 1.23
[3]; iTRAQ abundance ratio Pa-Cathelicidin/Pa-Control of protein Q9HTQ6 (GN=xpt)
  Pa-Ca/Pa-C: 1.069
[3]; iTRAQ abundance ratio Pa-Cathelicidin/Pa-Control of protein Q9HTY4 (GN=argE)
  Pa-Ca/Pa-C: 1.064
[3]; iTRAQ abundance ratio Pa-Cathelicidin/Pa-Control of protein Q9HU23 (GN=rmlD)
  Pa-Ca/Pa-C: 0.9526
[3]; iTRAQ abundance ratio Pa-Cathelicidin/Pa-Control of protein Q9HU51 (GN=PA5133)
  Pa-Ca/Pa-C: 0.8597
[3]; iTRAQ abundance ratio Pa-Cathelicidin/Pa-Control of protein Q9HUB1 (GN=PA5072)
  Pa-Ca/Pa-C: 1.129
[3]; iTRAQ abundance ratio Pa-Cathelicidin/Pa-Control of protein Q9HUL5 (GN=PA4949)
  Pa-Ca/Pa-C: 0.9992
[3]; iTRAQ abundance ratio Pa-Cathelicidin/Pa-Control of protein Q9HUN4 (GN=alr)
  Pa-Ca/Pa-C: 0.8997
[3]; iTRAQ abundance ratio Pa-Cathelicidin/Pa-Control of protein Q9HUS6 (GN=PA4887)
  Pa-Ca/Pa-C: 0.9498
[3]; iTRAQ abundance ratio Pa-Cathelicidin/Pa-Control of protein Q9HUT5 (GN=PA4878)
  Pa-Ca/Pa-C: 0.8866
[3]; iTRAQ abundance ratio Pa-Cathelicidin/Pa-Control of protein Q9HVA1 (GN=ilvH)
  Pa-Ca/Pa-C: 1.442
[3]; iTRAQ abundance ratio Pa-Cathelicidin/Pa-Control of protein Q9HVI2 (GN=PA4607)
  Pa-Ca/Pa-C: 1.1056
[3]; iTRAQ abundance ratio Pa-Cathelicidin/Pa-Control of protein Q9HVI3 (GN=PA4606)
  Pa-Ca/Pa-C: 1.1297
[3]; iTRAQ abundance ratio Pa-Cathelicidin/Pa-Control of protein Q9HVP4 (GN=PA4533)
  Pa-Ca/Pa-C: 1.032
[3]; iTRAQ abundance ratio Pa-Cathelicidin/Pa-Control of protein Q9HVQ9 (GN=lpxO1)
  Pa-Ca/Pa-C: 0.3833
[3]; iTRAQ abundance ratio Pa-Cathelicidin/Pa-Control of protein Q9HVV6 (GN=PA4461)
  Pa-Ca/Pa-C: 0.9096
[3]; iTRAQ abundance ratio Pa-Cathelicidin/Pa-Control of protein Q9HW10 (GN=PA4396)
  Pa-Ca/Pa-C: 0.9909
[3]; iTRAQ abundance ratio Pa-Cathelicidin/Pa-Control of protein Q9HW40 (GN=PA4361)
  Pa-Ca/Pa-C: 1.028
[3]; iTRAQ abundance ratio Pa-Cathelicidin/Pa-Control of protein Q9HW52 (GN=PA4349)
  Pa-Ca/Pa-C: 1.052
[3]; iTRAQ abundance ratio Pa-Cathelicidin/Pa-Control of protein Q9HW85 (GN=sbcB)
  Pa-Ca/Pa-C: 0.9833
[3]; iTRAQ abundance ratio Pa-Cathelicidin/Pa-Control of protein Q9HWG9 (GN=phzS)
  Pa-Ca/Pa-C: 0.9442
[3]; iTRAQ abundance ratio Pa-Cathelicidin/Pa-Control of protein Q9HX06 (GN=PA4021)
  Pa-Ca/Pa-C: 1.123
[3]; iTRAQ abundance ratio Pa-Cathelicidin/Pa-Control of protein Q9HX89 (GN=PA3924)
  Pa-Ca/Pa-C: 0.8403
[3]; iTRAQ abundance ratio Pa-Cathelicidin/Pa-Control of protein Q9HXF4 (GN=PA3852)
  Pa-Ca/Pa-C: 1.051
[3]; iTRAQ abundance ratio Pa-Cathelicidin/Pa-Control of protein Q9HXG8 (GN=PA3836)
  Pa-Ca/Pa-C: 1.058
[3]; iTRAQ abundance ratio Pa-Cathelicidin/Pa-Control of protein Q9HXL6 (GN=PA3779)
  Pa-Ca/Pa-C: 0.9473
[3]; iTRAQ abundance ratio Pa-Cathelicidin/Pa-Control of protein Q9HXT9 (GN=wspR)
  Pa-Ca/Pa-C: 1.096
[3]; iTRAQ abundance ratio Pa-Cathelicidin/Pa-Control of protein Q9HY45 (GN=PA3575)
  Pa-Ca/Pa-C: 1.067
[3]; iTRAQ abundance ratio Pa-Cathelicidin/Pa-Control of protein Q9HY53 (GN=PA3564)
  Pa-Ca/Pa-C: 0.9999
[3]; iTRAQ abundance ratio Pa-Cathelicidin/Pa-Control of protein Q9HYC5 (GN=PA3484)
  Pa-Ca/Pa-C: 1.215
